From patent US4681940A, “5-[3-[[2-quinolyl]methoxy]phenyl]-1,3-oxazoles” (American Home Products Corporation, priority 1985, dated 1987)
Counter-ions that a name gives are not always drawn. Each block holds one compound with its values, some of them ahead of it.

Key:
[1] = test system: LTD4 induced bronchoconstriction; assay: In vivo inhibition of bronchospasm induced in guinea pigs by exogenously administered leukotrienes C4 and/or D4; parameters: species or system guinea pig (male Hartley); conditions: 10 minutes before induction of bronchospasm
Description: The assay of this Example measures the in vivo ability of the compounds of the invention to inhibit the bronchospasm induced in guinea pigs by the exogenously administered leukotrienes C4 and/or D4.
This assay is carried out as follows:
Male Hartley strain guinea pigs (350-600 g) are anesthetized with pentobarbital sodium (50 mg/kg, i.p.). The jugular vein is cannulated for injection of drugs and the carotid artery for monitoring blood pressure. The trachea is cannulated for artificial ventilation by a miniature Starling pump and for indirect measurement of respiratory volume changes as described infra. The animals are then pretreated with succinylcholine (2 mg/kg i.v.) and indomethacin (10 mg/kg i.v. in trizma 8.3 buffer, 9 minutes prior to leukotriene challenge). Submaximal bronchoconstrictor responses are established in control animals by varying the dose-levels of leukotriene. Intravenous dose-levels for LTC4 range from 0.4 to 0.6 μg/kg and for LTD4 the range is from 0.3 to 0.5 μg/kg. The aerosol bronchoprovocation dose for LTC4 is generated from 1.6 μM solution and for LTD4 from a 2.0 μM solution.
Test drugs (dissolved in a solvent such as propylene glycol, polyethylene glycol 400 or saline) are administered either intraduodenally, by aerosol or intragastrically at 2 or 10 minutes before induction of bronchospasm by administration of either LTC4 or LTD4 at the predetermined dose-levels. Aerosols of soluble drugs or leukotrienes are produced in-line for 10 seconds only by actuation of an ultrasonic nebulizer (Monaghan). Aerosolized drug dosage is expressed in terms of solution concentration and by a fixed aerosol exposure time (approximately 10 seconds). Control animals receive solvent (2 ml/kg i.d. or appropriate aerosol) in place of drug.
(§1) Respiratory volume changes are determined by a calibrated piston whose travel is recorded, via a linear transducer, on a Beckman Dynograph recorder. Maximal bronchoconstrictor volume is determined by clamping off the trachea at the end of the experiment. Overflow volumes at 1, 3 and 5 minutes are obtained from the recorded charts.
Area under the volume overflow curve (AUC) is estimated, using the overflow values at 1, 3 and 5 minutes, and expressed as a percentage of the maximal overflow AUC (equation 1): [formula] Drug effects are reported as percent inhibition of % max AUC values obtained from appropriate control animals (equation 2): [formula]
Student's t-test for unpaired data is used to determine statistical significance (p<0.05). IC50 values can also be determined by inverse prediction from linear regression lines through points between 10 and 90% inhibition.

[2] = test system: synthesis of 5-HETE by rat glycogen elicited polymorphonuclear leukocytes; assay: Inhibition of 5-HETE synthesis by rat glycogen-elicited polymorphonuclear leukocytes; type: cell-based, rat (female Wistar); conditions: rat PMN
Description: The assay of this Example measures the ability of the compounds of the invention to inhibit the synthesis of 5 -HETE by rat glycogen elicited polymorphonuclear leukocytes.
(§2) The assay is carried out as follows:
Peritoneal PMN are obtained from female Wistar rats (150-250 g) that received an i.p. injection of 6% glycogen (10 ml). After 24 hours, rats are killed by CO2 asphyxiation and peritoneal cells are harvested by peritoneal lavage using Ca^++ and Mg^++ free Hanks' balanced salt solution (HBSS). The peritoneal exudate is centrifuged at 400 g for 10 minutes. After centrifugation, the lavaged fluid is removed and the cell pellet is resuspended in HBSS containing Ca^++ and Mg^++ and 10 mM L-cysteine at a concentration of 2×10^7 cells/ml. To 1 ml portions of cell suspension, test drugs or vehicle are added and incubated at 37° C. for 10 minutes. Following this preincubation, the calcium ionophore (10 μM), A23187, is added together with 0.5 μCi [^14 C] arachidonic acid and further incubated for 10 minutes. The reaction is stopped by the addition of ice cold water (3 ml) and acidifying to pH 3.5. Lipoxygenase products are then extracted twice into diethyl ether. The pooled ether extracts are evaporated to dryness under nitrogen and the residue is redissolved in a small volume of methanol and spotted on aluminum backed pre-coated thin layer chromatographic plates. The samples are then co-chromatographed with authentic reference 5-HETE in the solvent system--hexane:ether:acetic acid (50:50:3). After chromatography, the areas associated with 5-HETE standard are identified by autoradiography, cut out and quantitated by liquid scintillation.
The compounds of this invention are tested in this assay at a level of 50 μm, unless otherwise noted. The results are summarized in Table 1, where those compounds having an inhibition of >50% are designated by a "+". Some results are expressed as an IC50 value.

[3] = test system: ovalbumin induced bronchospasm; assay: In vivo inhibition of ovalbumin-induced bronchospasm mediated by endogenous mediators in sensitized guinea pigs; parameters: species or system guinea pig (male Hartley); conditions: 50 mg/kg intraduodenal, 10 minutes before ovalbumin challenge
Description: The assay of this Example measures the in vivo ability of the compounds of the invention to inhibit the bronchospasm induced in guinea pigs by endogenous mediators of the bronchoconstriction.
as §2
Male Hartley strain guinea pigs weighing 250-350 g are sensitized to chicken ovalbumin (OA) (10 mg i.p.) on days 1 and 3 and used starting on day 26. The animals are anesthetized with pentobarbital sodium (50 mg/kg, i.p.), bilateral vagotomy is performed, and the jugular vein is cannulated for injection of drugs and the carotid artery for monitoring blood pressure. The trachea is cannulated for artificial ventilation by miniature Starling pump and for indirect measurement of respiratory volume changes as described, infra. Succinylcholine (2 mg/kg, i.v.) is administered to arrest spontaneous respiration. […]
as §1, with “volumes at minutes 1, 3” for “volumes at 1, 3”, “and 5 are obtained” for “and 5 minutes are obtained”
Area under the volume overflow curve (AUC) is estimated, using the overflow values at 1, 3 and 5 minutes, and expressed as a percentage of the maximal overflow AUC (equation 1): [formula] […]

SMILES: CCC1=NCC(c2cccc(OCc3ccc4ccccc4n3)c2)O1 (stereo not drawn) [Example 5, 2-Ethyl-4,5-dihydro-5-[3-[(2-quinolinyl)methoxy]phenyl]-1,3-oxazole]
% Inhibition ([1]; 25 mg/kg, intraduodenally): 77%

SMILES: CN1CC(c2cccc(OCc3ccc4ccccc4n3)c2)OC1=S (stereo not drawn) [Example 2, 5-[3-[(2-Quinolinyl)methoxy]phenyl]-3-methyl-2-thiaoxazolidone]
>50% Inhibitory at 50 μm [2]: + (inhibition of >50%)

SMILES: CN1C[C@@H](c2cccc(OCc3ccc4ccccc4n3)c2)OC1=O [Example 1 (as free base, R-enantiomer), 5-[3-[(2-Quinolinyl)methoxy]phenyl]-3-methyl-2-oxazolidone]
% Inhibition ([1]; 50 mg/kg, intraduodenally): 91%
% Inhibition ([1]; 50 mg/kg, intragastrically): 65%
ED50 ([1]; Cavia porcellus, 10 min, printed on the intraduodenal line, read-out: IC50 (the source's name)): 8.6 mg/kg

SMILES: CN1CC(c2cccc(OCc3ccc4ccccc4n3)c2)OC1=O (stereo not drawn) [1 (as HCL salt), 5-[3-[(2-Quinolinyl)methoxy]phenyl]-3-methyl-2-oxazolidone]
% Inhibition ([1]; 50 mg/kg, intraduodenally): 65%
% Inhibition ([1]; 50 mg/kg, intragastrically): 46%

SMILES: CN1CC(c2cccc(OCc3ccc4ccccc4n3)c2)OC1=O (stereo not drawn) [1 (as free base), 5-[3-[(2-Quinolinyl)methoxy]phenyl]-3-methyl-2-oxazolidone]
% Inhibition of Max AUC [3]: 69%

SMILES: CN1CC(c2cccc(OCc3nc4ccccc4n3C)c2)OC1=O (stereo not drawn) [Example 4, 5-[3-[(1-Methyl-2-benzimidazoyl)]methoxy]phenyl-3-methyl-2-oxazolidone]
% Inhibition ([1]; 50 mg/kg, intraduodenally): 65%

IC50 ([2]; Leukocyte): 19.6 µM
SMILES: CN1C[C@@H](c2cccc(OCc3ccc4ccccc4n3)c2)OC1=O [Example 1, 5-[3-[(2-Quinolinyl)methoxy]phenyl]-3-methyl-2-oxazolidone]
>50% Inhibitory at 50 μm [2]: + (inhibition of >50%)

SMILES: c1ccc(C2=NCC(c3cccc(OCc4ccc5ccccc5n4)c3)O2)nc1 (stereo not drawn) [Example 6, 4,5-Dihydro-5-[3-[(2-quinolinyl)methoxy]phenyl]-2-(2-pyridyl)-1,3-oxazole]
% Inhibition ([1]; 25 mg/kg, intraduodenally): 96%

SMILES: CCOC(=O)CC1=NCC(c2cccc(OCc3ccc4ccccc4n3)c2)O1 (stereo not drawn) [Example 8, 2-Ethoxycarbonylmethyl-4,5-dihydro-5-[3-[(2-quinolinyl)methoxy]phenyl]-1,3-oxazole]
% Inhibition ([1]; 25 mg/kg, intraduodenally): 72%

SMILES: c1cc(OCc2ccc3ccccc3n2)cc(C2CN=C(c3cccs3)O2)c1 (stereo not drawn) [Example 7, 4,5-Dihydro-5-[3-[(2-quinolinyl)methoxy]phenyl]-2-(2-thienyl)-1,3-oxazole]
% Inhibition ([1]; 50 mg/kg, intraduodenally): 41%

SMILES: CN1C[C@H](c2cccc(OCc3ccc4ccccc4n3)c2)OC1=O [Example 1 (as free base, S-enantiomer), 5-[3-[(2-Quinolinyl)methoxy]phenyl]-3-methyl-2-oxazolidone]
% Inhibition ([1]; 50 mg/kg, intraduodenally): 99%
